In patent publication US4769377A, “Adenosine receptor antagonists” (priority 1986, dated 1988):
Converted amounts (≈) assume the structure as drawn. “Also recorded” adds a separate entry of the source. Where two headings read alike, the source gives them in different places. Blank lines part the entries; values can stand above or below the compound they belong to.

What was measured:
[1] = biological target: T1, adenosine A1 receptors (Bos taurus, UniProt P28190); test: biochemical;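 also: Filter-bound radioactivity read by liquid scintillation counting, with dose-inhibition curves built from 4–8 test concentrations, each run in triplicate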
T1 sequence (P28190 1-326): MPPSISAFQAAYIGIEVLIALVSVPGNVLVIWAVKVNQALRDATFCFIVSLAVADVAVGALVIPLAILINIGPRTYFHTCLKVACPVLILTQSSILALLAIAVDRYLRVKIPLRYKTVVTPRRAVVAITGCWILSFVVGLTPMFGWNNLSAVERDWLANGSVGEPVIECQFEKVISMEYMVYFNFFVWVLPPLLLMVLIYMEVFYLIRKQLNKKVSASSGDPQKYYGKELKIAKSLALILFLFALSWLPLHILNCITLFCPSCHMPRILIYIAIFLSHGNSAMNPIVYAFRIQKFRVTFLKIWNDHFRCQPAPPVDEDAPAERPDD
Description: (§1) Incubation was terminated and samples were collected on GF/B filters under vacuum, washed three times, and counted in a liquid scintillation counter. Dose-inhibition curves were generated with four to eight concentrations of the test compound in triplicate incubations.

[2] = biological target: T1, adenosine A1 receptors; test: inhibition of [^3 H]CHA binding to A1 adenosine receptors in bovine brain membranes;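 also: Filter-bound radioactivity read by liquid scintillation counting, with dose-inhibition curves built from 4–8 test concentrations, each run in triplicate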
Description: as §1

[3] = Solubility of 8-phenylxanthines; format: physicochemical
[4] = biological target: T2, A1 receptor in rat brain (Rattus norvegicus, UniProt P25099); test: A1 receptor affinity in rat brain; format: binding
T2 construct: from tissue; host or cells: rat brain
T2 sequence (P25099 1-326): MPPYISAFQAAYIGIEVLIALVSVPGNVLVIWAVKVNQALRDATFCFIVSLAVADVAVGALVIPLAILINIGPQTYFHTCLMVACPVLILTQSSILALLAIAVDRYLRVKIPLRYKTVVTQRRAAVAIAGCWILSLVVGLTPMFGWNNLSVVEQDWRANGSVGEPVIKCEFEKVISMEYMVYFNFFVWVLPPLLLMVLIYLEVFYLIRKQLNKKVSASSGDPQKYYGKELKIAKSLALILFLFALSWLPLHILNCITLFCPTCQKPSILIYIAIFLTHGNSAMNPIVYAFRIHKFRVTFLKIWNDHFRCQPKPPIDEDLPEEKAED

[5] = hydrophobicity; format: physicochemical
[6] = biological target: T1, adenosine A1 receptors
Description: as §1

[7] = Table I, vs [^3 H]-cyclohexyladenosine, bovine brain
[8] = Table II, vs [^3 H-CHA] in bovine brain

SMILES: Cn1c(=O)c2[nH]c(-c3ccc(N)cc3N)nc2n(C)c1=O [B232, 8-(2,4-diaminophenyl)theophylline]
Ki [1]: 5.9 nM
IC50 [2, 7]: 8 nM

SMILES: CCn1c(=O)c2[nH]c(-c3ccccc3)nc2n(CC)c1=O [1,3-diethyl-8-phenylX, 1,3-diethyl-8-phenylxanthine]
solubility ([3]; water, read-out: soluble in water at): 3 µM (≈ 0.853 µg/mL)

SMILES: Cn1c(=O)c2[nH]c(-c3ccc([N+](=O)[O-])cc3N)nc2n(C)c1=O [8-(2-amino-4-nitrophenyl)T]
Ki [1]: 1.2 nM
IC50 [2, 8]: 2.5 nM

SMILES: Cn1c(=O)c2[nH]c(-c3ccc(Cl)c(Cl)c3)nc2n(C)c1=O [8-(3,4-dichlorophenyl)T]
IC50 [2, 8]: 5 nM

SMILES: CCCn1c(=O)c2[nH]c(-c3ccccc3)nc2n(CCC)c1=O [B255, 1,3-Dipropyl-8-Phenylxanthine]
IC50 [2]: 0.3 nM
Ki [2]: 0.12 nM
adenosine receptor blocking activity (in words) ([2]; bovine brain): significantly lower
times more potent than theophylline ([2]; bovine brain): about 10,000 times

SMILES: Cn1c(=O)c2[nH]c(-c3ccc(-c4ccccc4)cc3)nc2n(C)c1=O [8-(p-phenylphenyl)T]
IC50 [2, 8]: 3.5 nM

SMILES: Cc1cccc(-c2nc3c([nH]2)c(=O)n(C)c(=O)n3C)c1 [8-(m-methylphenyl)T]
IC50 [2, 8]: 13 nM

SMILES: CCCn1c(=O)c2nc[nH]c2n(CCC)c1=O [B80, 1,3-dipropylxanthine]
IC50 [2]: 200 nM
Ki [2]: 100 nM

SMILES: Cn1c(=O)c2[nH]c(-c3ccc(Br)cc3)nc2n(C)c1=O [8-(p-bromophenyl)T]
IC50 [2]: 0.8 nM
Ki [2]: 0.34 nM

SMILES: Cn1c(=O)c2[nH]c(-c3ccc(O)cc3)nc2n(C)c1=O [8-(p-hydroxyphenyl)T]
Ki [2]: 2 nM
IC50 [2, 8]: 2 nM

SMILES: Cn1c(=O)c2[nH]c(-[c-]3cccc3)nc2n(C)c1=O.[Fe+2].c1cc[cH-]c1 [8-ferrocenylT]
IC50 [2, 8]: 20 nM

SMILES: Cn1c(=O)c2[nH]c(-c3cccnc3)nc2n(C)c1=O [8-(3-pyridyl)T]
IC50 [2]: 50 nM

SMILES: Cn1cnc2c(N)ncnc21 [9-methyladenine]
IC50 [2]: 35000 nM

SMILES: Nc1ncnc2nc[nH]c12 [adenine]
IC50 [2]: 800000 nM

SMILES: Cn1c(=O)c2[nH]c(CC3CCCC3)nc2n(C)c1=O [8-cyclopentylmethylT]
IC50 [2]: 30 nM

SMILES: Cn1c(=O)c2[nH]c(-c3ccccn3)nc2n(C)c1=O [8-(2-pyridyl)T]
IC50 [2]: 100 nM

SMILES: Cn1cnc2c1c(=O)[nH]c(=O)n2C [3,7-Dimethyl (theobromine), theobromine]
Ki [2]: 68 nM

SMILES: CCCn1c(=O)c2[nH]c(-c3ccc(Cl)cc3N)nc2n(CCC)c1=O [B256, 1,3-dipropyl-8-(2-amino-4-chlorophenyl)xanthine]
Ki [4]: 5 nM
more potent than 8-phenyltheophylline using rat brain [4]: about 30 fold
more potent than theophylline using rat brain [4]: ~2000 fold
solubility ([3]; dmf, organic solvent or mixture, read-out: soluble in DMF at): 30000 µM (≈ 10900 µg/mL)
solubility ([3]; ethanol, organic solvent or mixture, read-out: soluble in ethanol at): 1000 µM (≈ 362 µg/mL)
solubility ([3]; hot 0.1n koh, read-out: soluble in hot 0.1N KOH at): 1000 µM (≈ 362 µg/mL)
water solubility (in words) ([3]; water): very water-insoluble
hydrophobicity (in words) [5]: hydrophobic
Ki [6]: 0.022 nM
IC50 [2, 7]: 0.05 nM
activity relative to most active prior art compound (B70) ([2]; bovine brain): ~16 times
adenosine receptor blocking activity (in words) ([2]; bovine brain): significantly lower; also recorded: extremely potent; also recorded: particularly outstanding activity
times more potent than xanthine ([2]; bovine brain): approximately 4,000,000 times
Ki ([2]; read-out: Ki for adenosine A1 receptors, bovine brain): 0.022 nM

SMILES: Cn1c(=O)c2[nH]c(-c3cccc(O)c3)nc2n(C)c1=O [8-(m-hydroxyphenyl)T]
Ki [2]: 3.1 nM
IC50 [2, 8]: 6 nM

SMILES: Cn1c(=O)c2[nH]c(-c3ccc(Cl)cc3)nc2n(C)c1=O [B70, 8-(p-chlorophenyl)theophylline]
IC50 [2, 7]: 0.8 nM

SMILES: Cn1c(=O)c2[nH]c(-c3ccc(Br)o3)nc2n(C)c1=O [8-(5-bromo-2-furyl)T]
IC50 [2]: 50 nM

SMILES: Cn1c(=O)c2c(ncn2C)n(C)c1=O [caffeine]
IC50 [2]: 20000 nM
Ki [2]: 11000 nM

SMILES: CC(C)c1ccc(-c2nc3c([nH]2)c(=O)n(C)c(=O)n3C)cc1 [8-(p-isopropylphenyl)T]
IC50 [2, 8]: 2.5 nM

More lines, main results first:

Ki [1]: 0.2 nM
IC50 [2]: 0.15 nM
adenosine receptor blocking activity (in words) ([2]; bovine brain): significantly lower
SMILES: Cn1c(=O)c2[nH]c(-c3ccc(Cl)cc3N)nc2n(C)c1=O [B246, 8-(2-Amino-4-Chlorophenyl) Theophylline]

Ki [1]: 0.32 nM
IC50 [2, 8]: 0.8 nM
SMILES: CCn1c(=O)c2[nH]c(-c3ccc(Cl)cc3N)nc2n(CC)c1=O [1,3-diethyl-8-(2-amino-4-chlorophenyl)X, 1,3-diethyl-8-(2-amino-4-chlorophenyl)xanthine]

IC50 [2, 8]: 2 nM
SMILES: C=CCn1c(=O)c2[nH]c(-c3ccc(Cl)cc3N)nc2n(C)c1=O [1-allyl-3-methyl-8-(2-amino-4-chlorophenyl)X]

IC50 [2, 8]: 3500 nM
SMILES: Cn1c(=O)c2[nH]c([N+](=O)[O-])nc2n(C)c1=O [8-nitroT]

IC50 [2]: 3 nM
SMILES: Cn1c(=O)c2nc(C3CCCCC3)[nH]c2n(C)c1=O [8-cyclohexylT]

IC50 [2]: 6000 nM
Ki [2]: 2600 nM
SMILES: Cn1c(=O)[nH]c2nc[nH]c2c1=O [1-methylX]

IC50 [2]: 8000 nM
SMILES: CCCn1c(=O)n(CC)c(=O)c2scnc21 [1-ethyl-3-propyl-7-thiaxanthine]

IC50 [2]: 18 nM
SMILES: Cn1c(=O)c2[nH]c(-c3c[nH]c4ccccc34)nc2n(C)c1=O [8-(3-indolyl)T]

water solubility (in words) ([3]; water): much greater water solubility
Ki [1]: 0.14 nM
IC50 [2]: 0.2 nM
activity relative to most active prior art compound (B70) ([2]; bovine brain): four-fold greater
adenosine receptor blocking activity (in words) ([2]; bovine brain, listed as 262): significantly lower
SMILES: CCCn1c(=O)c2nc(-c3ccc(N)cc3N)[nH]c2n(CCC)c1=O [B262, 1,3-Dipropyl-8-(2,4-Diaminophenyl) Xanthine]
adenosine receptor blocking activity (in words) ([2]; bovine brain): substantially less active than B256; also recorded: particularly outstanding activity

IC50 [2]: 5 nM
SMILES: Cn1c(=O)c2nc(-c3cccs3)[nH]c2n(C)c1=O [8-(2-thienyl)T]
